Measurements taken from patent publication US10208074B2, “Pyrazole compounds and method for making and using the compounds” (Rigel Pharmaceuticals, Inc., priority 2015, dated 2019).
pEC50: −log10 of the molar value. Where a name gives a salt, the structure may show the parent alone. Read-outs that look alike come from different tables or passages of the source.

What was measured:
IL-23 (p19/p40) = experiment: IL23-p19 ELISA, Dendritic, LPS (compound screening using DC cells); format: cell-based, Human; conditions: for pEC50: PBMC-derived DC cells, IFNγ primed, LPS 1 μg/ml, 18 hours, 10 pt, read-out: IL23-p19 ELISA, Dendritic, LPS, 10 pt, EC50
How it was run: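 IL-23 in supernatants quantified by sandwich ELISA (anti-p19 capture, biotinylated anti-p40 detection, chemiluminescent readout) after 18 h LPS (1 μg/ml) stimulation. Cells were monocyte-derived DCs (GM-CSF/IL-4, 7 d), IFNγ-primed 24 h and given compound 1 h before LPS; viability by CellTiter Glo.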

IL-23p19 = experiment: LPS induced IL23p19 in THP-1 cells (with IFNγ primed) assay; format: cell-based, Human; conditions: for pEC50: THP-1 cells, IFNγ primed, LPS 1 ug/mL, 18 hours, 10 pt, read-out: IL23-p19 ELISA, THP1-IFNy, LPS, 10 pt EC50
How it was run: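 Readout is secreted IL-23p19, quantified by chemiluminescent sandwich ELISA after 18 h LPS (1 ug/mL) stimulation of THP-1 cells that had been IFNγ-primed (50 ng/mL, ~18 h) and given compound 1 h beforehand at 37 °C. EC50 derived by curve fit; cytotoxicity tracked with Cell Titer Glo.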

| SMILES | pEC50 (IL-23 (p19/p40); Homo sapiens, 18 h) | pEC50 (IL-23p19; Homo sapiens, THP-1, 18 h) | also measured |
| --- | --- | --- | --- |
| CCO[C@H]1C[C@@H](n2cc(NC(=O)c3csc(-c4cnn(COP(=O)(O)O)c4)n3)c(-c3ccccn3)n2)C1 [II-80, (4-(4-((1-((1,3-cis)-3-ethoxycyclobutyl)-3-(pyridin-2-yl)-1H-pyrazol-4-yl)carbamoyl)thiazol-2-yl)-1H-pyrazol-1-yl)methyl phosphate bis-ammonium salt] |  |  | pEC50 (IL-23 (p19/p40); phosphate bis-ammonium salt): 6.61; pEC50 (IL-23p19; phosphate bis-ammonium salt): 7.31 |
| CCO[C@H]1C[C@@H](n2cc(NC(=O)c3csc(-c4cnn(COP(=O)(O)O)c4)n3)c(-c3ccccn3)n2)C1 [II-81, (4-(4-((1-((1,3-cis)-3-ethoxycyclobutyl)-3-(pyridin-2-yl)-1H-pyrazol-4-yl)carbamoyl)thiazol-2-yl)-1H-pyrazol-1-yl)methyl phosphate bis-lysine salt] |  |  | pEC50 (IL-23 (p19/p40)): 6.77; pEC50 (IL-23p19): 7.72 |
| CCO[C@H]1C[C@@H](n2cc(NC(=O)c3csc(-c4cnn(COP(=O)(O)O)c4)n3)c(-c3ccccn3)n2)C1 [II-82, (4-(4-((1-((1,3-cis)-3-ethoxycyclobutyl)-3-(pyridin-2-yl)-1H-pyrazol-4-yl)carbamoyl)thiazol-2-yl)-1H-pyrazol-1-yl)methyl phosphate bis-arginine salt] |  |  | EC50 (IL-23 (p19/p40); Homo sapiens, 18 h, read-out: IL23-p19 ELISA, Dendritic, LPS, 10 pt, EC50 (μM)): 0.176 µM; EC50 (IL-23p19; Homo sapiens, THP-1, 18 h, read-out: IL23-p19 ELISA, THP1-IFNy, LPS, 10 pt EC50 (μM)): 0.0387 µM |
| CCO[C@H]1C[C@@H](n2cc(NC(=O)c3csc(-c4cnn(COP(=O)(O)O)c4)n3)c(-c3ccccn3)n2)C1 [II-83, (4-(4-((1-((1,3-cis)-3-ethoxycyclobutyl)-3-(pyridin-2-yl)-1H-pyrazol-4-yl)carbamoyl)thiazol-2-yl)-1H-pyrazol-1-yl)methyl dihydrogen phosphate] |  |  | pEC50 (IL-23 (p19/p40)): 6.62; pEC50 (IL-23p19): 7.06 |
| CCO[C@H]1C[C@@H](n2cc(NC(=O)c3csc(-c4cnn(COP(=O)(O)O)c4)n3)c(-c3ccccn3)n2)C1 [II-84, (4-(4-((1-((1,3-cis)-3-ethoxycyclobutyl)-3-(pyridin-2-yl)-1H-pyrazol-4-yl)carbamoyl)thiazol-2-yl)-1H-pyrazol-1-yl)methyl phosphate Tris salt] |  |  | pEC50 (IL-23 (p19/p40)): 6.52; pEC50 (IL-23p19): 7.07 |
| CCO[C@H]1C[C@@H](n2cc(NC(=O)c3csc(-c4cnn(COP(=O)(O)O)c4)n3)c(-c3ccccn3)n2)C1 [II-85, (4-(4-((1-((1,3-cis)-3-ethoxycyclobutyl)-3-(pyridin-2-yl)-1H-pyrazol-4-yl)carbamoyl)thiazol-2-yl)-1H-pyrazol-1-yl)methyl phosphate triethylamine salt] |  |  | pEC50 (IL-23 (p19/p40)): 6.54; pEC50 (IL-23p19): 7.30 |
| CCO[C@H]1C[C@@H](n2cc(NC(=O)c3csc(-c4cn[nH]c4)n3)c(-c3ccc(C(F)(F)F)cn3)n2)C1 [II-86, N-(1-((1,3-cis)-3-ethoxycyclobutyl)-3-(5-(trifluoromethyl)pyridin-2-yl)-1H-pyrazol-4-yl)-2-(1H-pyrazol-4-yl)thiazole-4-carboxamide] | 5.24 | 6.86 |  |
| O=C(Nc1cn(C(F)F)nc1-c1ccccn1)c1csc(-c2cn[nH]c2)n1 [II-88, N-(1-(difluoromethyl)-3-(pyridin-2-yl)-1H-pyrazol-4-yl)-2-(1H-pyrazol-4-yl)thiazole-4-carboxamide] | 6.41 | 7.02 |  |
| CCO[C@H]1C[C@@H](n2cc(NC(=O)c3csc(-c4cn[nH]c4)n3)c(-c3ncccc3C(F)(F)F)n2)C1 [II-89, N-(1-((1,3-cis)-3-ethoxycyclobutyl)-3-(3-(trifluoromethyl)pyridin-2-yl)-1H-pyrazol-4-yl)-2-(1H-pyrazol-4-yl)thiazole-4-carboxamide] | 5.95 | 6.23 |  |
| CCO[C@H]1C[C@@H](n2cc(NC(=O)c3csc(-c4cn[nH]c4)n3)c(-c3cccc(C(F)(F)F)n3)n2)C1 [II-90, N-(1-((1,3-cis)-3-ethoxycyclobutyl)-3-(6-(trifluoromethyl)pyridin-2-yl)-1H-pyrazol-4-yl)-2-(1H-pyrazol-4-yl)thiazole-4-carboxamide] | 6.66 | 6.75 |  |
| O=C(Nc1cn(CC(F)(F)F)nc1-c1ccccn1)c1csc(-c2cn[nH]c2)n1 [II-94, 2-(1H-pyrazol-4-yl)-N-(3-(pyridin-2-yl)-1-(2,2,2-trifluoroethyl)-1H-pyrazol-4-yl)thiazole-4-carboxamide] | 7.48 | 6.51 |  |
| O=C(Nc1cn(C(F)F)nc1-c1ccccn1)c1csc(-c2c[nH]nc2C(F)(F)F)n1 [II-95, N-(1-(difluoromethyl)-3-(pyridin-2-yl)-1H-pyrazol-4-yl)-2-(3-(trifluoromethyl)-1H-pyrazol-4-yl)thiazole-4-carboxamide] | 5.21 | 5.65 |  |
| Cc1n[nH]cc1-c1nc(C(=O)Nc2cn(C(F)F)nc2-c2ccccn2)cs1 [II-96, N-(1-(difluoromethyl)-3-(pyridin-2-yl)-1H-pyrazol-4-yl)-2-(3-methyl-1H-pyrazol-4-yl)thiazole-4-carboxamide] | 6.34 | 7.08 |  |
| CCO[C@H]1C[C@@H](n2cc(NC(=O)c3csc(-c4c[nH]nc4C)n3)c(-c3cccc(C(F)(F)F)n3)n2)C1 [II-99, N-(1-((1,3-cis)-3-ethoxycyclobutyl)-3-(6-(trifluoromethyl)pyridin-2-yl)-1H-pyrazol-4-yl)-2-(3-methyl-1H-pyrazol-4-yl)thiazole-4-carboxamide] | 6.00 | 6.38 |  |
| Cc1n[nH]cc1-c1nc(C(=O)Nc2cn(CC(F)(F)F)nc2-c2ccccn2)cs1 [II-100, 2-(3-methyl-1H-pyrazol-4-yl)-N-(3-(pyridin-2-yl)-1-(2,2,2-trifluoroethyl)-1H-pyrazol-4-yl)thiazole-4-carboxamide] | 6.65 | 7.25 |  |
| O=C(Nc1cn([C@H]2C[C@@H](O)C2)nc1-c1cnccn1)c1csc(-c2cn[nH]c2)n1 [II-101, N-(1-((1,3-cis)-3-hydroxycyclobutyl)-3-(pyrazin-2-yl)-1H-pyrazol-4-yl)-2-(1H-pyrazol-4-yl)thiazole-4-carboxamide] | 7.45 | 7.64 |  |
| CCO[C@H]1C[C@@H](n2cc(NC(=O)c3csc(-c4cn[nH]c4)n3)c(-c3ncccn3)n2)C1 [II-102, N-(1-((1,3-cis)-3-ethoxycyclobutyl)-3-(pyrimidin-2-yl)-1H-pyrazol-4-yl)-2-(1H-pyrazol-4-yl)thiazole-4-carboxamide] | 7.26 | 7.21 |  |
| COc1ccc(Cn2cc(-c3nc(C(=O)Nc4cn(CC(O)(C(F)(F)F)C(F)(F)F)nc4-c4ccccn4)cs3)cn2)cc1 [II-107, 2-(1-(4-methoxybenzyl)-1H-pyrazol-4-yl)-N-(3-(pyridin-2-yl)-1-(3,3,3-trifluoro-2-hydroxy-2-(trifluoromethyl)propyl)-1H-pyrazol-4-yl)thiazole-4-carboxamide] | 5.64 | 5.82 |  |
| CCOCCn1cc(NC(=O)c2csc(-c3cn[nH]c3)n2)c(-c2nccs2)n1 [II-109, N-(1-(2-ethoxyethyl)-3-(thiazol-2-yl)-1H-pyrazol-4-yl)-2-(1H-pyrazol-4-yl)thiazole-4-carboxamide] | 6.49 | 6.85 |  |
| O=C(Nc1cn(C2CCOCC2)nc1-c1nccs1)c1csc(-c2cn[nH]c2)n1 [II-111, 2-(1H-pyrazol-4-yl)-N-(1-(tetrahydro-2H-pyran-4-yl)-3-(thiazol-2-yl)-1H-pyrazol-4-yl)thiazole-4-carboxamide] | 7.46 | 7.19 |  |
| COCCOCCn1cc(NC(=O)c2csc(-c3cn[nH]c3)n2)c(-c2nccs2)n1 [II-113, N-(1-(2-(2-methoxyethoxy)ethyl)-3-(thiazol-2-yl)-1H-pyrazol-4-yl)-2-(1H-pyrazol-4-yl)thiazole-4-carboxamide] | 6.54 | 7.07 |  |
